This is an account of results in patent US20100093706A1, “MULTIMEDIATOR TRANSPORTER INHIBITORS FOR USE IN TREATMENT OF CENTRAL NERVOUS SYSTEM DISORDERS” (priority 2006, published 2010).

One data set deals with T1, DAT (h) (Homo sapiens, UniProt Q01959).
T1 construct: expressed in transfected cells
As to the kind of experiment: cell-based. The class given is cell-based. Particulars: human; nM; read-out: DAT (h) in vitro functional uptake. As for the experimental part:
(§1) Functional activity of the compounds was determined in vitro in cellular assays using recombinant human cell lines.

Another data set concerns the target T2, NET (h) (Homo sapiens, UniProt P23975).
T2 construct: expressed in transfected cells; host or cells: MDCK
As to the kind of experiment: cell-based. The class given is cell-based. Particulars: human; nM; read-out: NET (h) in vitro functional uptake. As for the experimental part: as §1

The next data set addresses DAT (r) (Rattus norvegicus, UniProt P23977). As to the kind of experiment: in vitro functional uptake, rat DAT. The class given is cell-based.
The target of a further data set is T3, DAT (SLC6A3) (Homo sapiens, UniProt Q01959).
T3 construct: expressed in transfected cells
Briefly: in vitro inhibition profile, IC50 of DAT (uptake assay). The class given is cell-based. Here is the method: Before the assay, cells expressing DAT are washed once with KRH and equilibrated for 5 min. The cells may be assayed in 24-well plates and incubated for 2-5 min. with tritiated amines. Nontransported inhibitors were preincubated for 5 min, and substrates were applied together with the tritiated substrate.
Experiments to determine the ionic requirements for DAT-mediated uptake are done in KRH buffer, substituting LiCl or choline Cl for NaCl (sodium-dependence) or substituting D-gluconates for NaCl and KCl, and Ca(NO3)2 for CaCl2 (chloride dependence). Cells are washed twice with sodium- or chloride-free KRH before the assay (each wash step at least 5 min). In all transport assays, incubation periods and substrate concentrations are chosen such that uptake obeyed first-order rate kinetics.
Vmax values for amine uptake in stable transfected DAT-cells are determined in parallel assays for at least two amines per experiment and expressed as relative values.

Data set [1] deals with NET (norepinephrine transporter or SLC6A2) (Homo sapiens, UniProt P23975). As to the kind of experiment: cell-based. Particulars: own compounds tested as racemic mixtures of enriched diastereomers.
In another data set the target is 5-HT (Homo sapiens, UniProt P31645). Briefly: cell-based. The following applies: own compounds tested as racemic mixtures of enriched diastereomers.
Another data set addresses T4, M1 receptor (Homo sapiens, UniProt P11229).
T4 sequence (P11229 1-460): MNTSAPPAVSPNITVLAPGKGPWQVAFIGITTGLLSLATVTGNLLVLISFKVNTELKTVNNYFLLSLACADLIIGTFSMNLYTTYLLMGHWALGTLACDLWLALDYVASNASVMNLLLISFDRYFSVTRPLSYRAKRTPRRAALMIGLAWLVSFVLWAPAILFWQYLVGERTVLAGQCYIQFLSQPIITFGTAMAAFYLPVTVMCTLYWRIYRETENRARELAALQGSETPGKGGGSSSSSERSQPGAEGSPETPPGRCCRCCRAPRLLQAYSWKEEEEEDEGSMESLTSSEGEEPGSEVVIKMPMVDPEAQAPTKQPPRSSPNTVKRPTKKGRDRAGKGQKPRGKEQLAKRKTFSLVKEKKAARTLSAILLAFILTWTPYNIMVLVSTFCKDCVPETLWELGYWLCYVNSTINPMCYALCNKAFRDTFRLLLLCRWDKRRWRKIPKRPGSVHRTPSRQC
As to the kind of experiment: in vitro selectivity panel, M1 receptor. The class given is binding. As for the experimental part:
(§2) The in vitro selectivity profile of two representative subject compounds, (3) and (1), are also tested against a panel of other receptors, including the M1 receptor, Histamine H1 receptor, sigma-1 (σ1) receptor, β1-adrenergic receptor, and dopamine D2 receptor. Representative results are listed below in Table III: […]

In another data set the target is Histamine H1 receptor (Homo sapiens, UniProt P35367). Briefly: in vitro selectivity panel, Histamine H1 receptor. The class given is binding. As for the experimental part:
as §2

The target of a further data set is sigma-1 (σ1) receptor (Homo sapiens, UniProt Q99720). As to the kind of experiment: in vitro selectivity panel, sigma-1 receptor. The class given is binding. Here is the method: as §2
The next data set concerns the target β1-adrenergic receptor (Homo sapiens, UniProt P08588). As to the kind of experiment: in vitro selectivity panel, β1-adrenergic receptor. The class given is binding. As for the experimental part:
as §2

Another data set has as its target dopamine D2 receptor (Homo sapiens, UniProt P14416). As to the kind of experiment: in vitro selectivity panel, dopamine D2 receptor. The class given is binding. As for the experimental part:
as §2

The next data set is described as follows: in vivo. Particulars: rat.
The subject of a further data set is rat. Briefly: acute single-dose toxicology in rat. The class given is in vivo. As for the experimental part: An in vivo evaluation was carried out to determine the maximum tolerated dose of numerous test compounds in rat. The compounds were administered i.v., and the animals were then observed for 72 hours.
Briefly, experimental rats, in groups of 5 animals, were administered with various doses of respective inhibitors (e.g. 30, 90, 120, and 200 mg/kg), and the observed toxicological effects were recorded.

Sequence of dopamine D2 receptor (P14416 whole entry): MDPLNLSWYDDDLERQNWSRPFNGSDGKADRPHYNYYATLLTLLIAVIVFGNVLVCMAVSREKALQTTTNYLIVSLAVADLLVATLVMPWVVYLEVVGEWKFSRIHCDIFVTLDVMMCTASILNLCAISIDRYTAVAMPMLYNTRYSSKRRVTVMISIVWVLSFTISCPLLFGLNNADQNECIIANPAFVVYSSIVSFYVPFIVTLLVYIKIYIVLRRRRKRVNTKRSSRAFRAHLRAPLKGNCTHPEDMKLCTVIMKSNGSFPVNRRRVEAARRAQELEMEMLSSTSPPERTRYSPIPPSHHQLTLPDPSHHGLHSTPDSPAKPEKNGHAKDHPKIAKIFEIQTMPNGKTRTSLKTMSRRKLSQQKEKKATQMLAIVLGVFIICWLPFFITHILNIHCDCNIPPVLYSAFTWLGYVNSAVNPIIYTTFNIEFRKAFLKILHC
T1 sequence (Q01959 whole entry): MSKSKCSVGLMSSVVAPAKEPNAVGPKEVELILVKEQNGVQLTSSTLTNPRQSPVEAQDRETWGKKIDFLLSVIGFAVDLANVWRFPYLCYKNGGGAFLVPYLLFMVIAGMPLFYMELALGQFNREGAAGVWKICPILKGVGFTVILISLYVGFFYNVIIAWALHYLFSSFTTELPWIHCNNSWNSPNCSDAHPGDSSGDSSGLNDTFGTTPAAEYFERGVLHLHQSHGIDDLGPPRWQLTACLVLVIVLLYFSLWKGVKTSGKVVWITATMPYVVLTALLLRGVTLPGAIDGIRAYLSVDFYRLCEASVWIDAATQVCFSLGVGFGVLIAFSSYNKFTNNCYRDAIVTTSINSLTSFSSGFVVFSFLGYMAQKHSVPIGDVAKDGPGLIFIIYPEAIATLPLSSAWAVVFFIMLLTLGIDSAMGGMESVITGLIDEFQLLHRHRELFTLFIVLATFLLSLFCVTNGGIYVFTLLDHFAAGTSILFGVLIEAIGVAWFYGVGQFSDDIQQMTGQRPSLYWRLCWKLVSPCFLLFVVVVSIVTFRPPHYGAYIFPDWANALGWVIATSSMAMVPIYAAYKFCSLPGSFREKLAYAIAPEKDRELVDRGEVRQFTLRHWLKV
T3 sequence (Q01959 whole entry): as above
Sequence of DAT (r) (P23977 whole entry): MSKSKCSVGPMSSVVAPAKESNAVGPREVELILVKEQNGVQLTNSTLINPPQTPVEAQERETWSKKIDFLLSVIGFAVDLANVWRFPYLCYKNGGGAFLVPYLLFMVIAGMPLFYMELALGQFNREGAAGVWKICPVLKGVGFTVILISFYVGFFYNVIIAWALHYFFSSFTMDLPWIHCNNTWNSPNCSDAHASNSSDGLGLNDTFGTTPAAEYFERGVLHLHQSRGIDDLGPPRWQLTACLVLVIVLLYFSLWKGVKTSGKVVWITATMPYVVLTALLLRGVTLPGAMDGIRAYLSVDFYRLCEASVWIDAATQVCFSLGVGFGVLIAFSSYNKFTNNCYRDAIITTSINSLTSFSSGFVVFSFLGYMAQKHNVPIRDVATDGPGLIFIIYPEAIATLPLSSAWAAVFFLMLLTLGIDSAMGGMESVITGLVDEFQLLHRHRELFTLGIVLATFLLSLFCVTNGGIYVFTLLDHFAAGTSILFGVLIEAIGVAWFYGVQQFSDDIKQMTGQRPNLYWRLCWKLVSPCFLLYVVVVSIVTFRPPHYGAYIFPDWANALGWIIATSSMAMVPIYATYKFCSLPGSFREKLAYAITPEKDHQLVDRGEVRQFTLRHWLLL
Sequence of Histamine H1 receptor (P35367 whole entry): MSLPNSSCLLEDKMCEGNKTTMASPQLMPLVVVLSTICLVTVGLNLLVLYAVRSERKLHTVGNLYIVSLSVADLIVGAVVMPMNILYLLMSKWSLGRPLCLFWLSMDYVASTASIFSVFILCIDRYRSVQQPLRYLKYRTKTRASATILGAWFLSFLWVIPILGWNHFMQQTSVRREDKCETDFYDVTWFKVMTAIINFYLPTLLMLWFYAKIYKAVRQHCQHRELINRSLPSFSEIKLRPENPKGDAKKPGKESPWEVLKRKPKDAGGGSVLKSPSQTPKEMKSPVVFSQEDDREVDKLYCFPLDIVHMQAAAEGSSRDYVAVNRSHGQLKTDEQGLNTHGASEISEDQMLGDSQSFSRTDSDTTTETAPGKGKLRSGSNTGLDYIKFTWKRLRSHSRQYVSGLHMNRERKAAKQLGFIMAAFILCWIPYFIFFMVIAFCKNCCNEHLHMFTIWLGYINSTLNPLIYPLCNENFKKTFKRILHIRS
Sequence of sigma-1 (σ1) receptor (Q99720 whole entry): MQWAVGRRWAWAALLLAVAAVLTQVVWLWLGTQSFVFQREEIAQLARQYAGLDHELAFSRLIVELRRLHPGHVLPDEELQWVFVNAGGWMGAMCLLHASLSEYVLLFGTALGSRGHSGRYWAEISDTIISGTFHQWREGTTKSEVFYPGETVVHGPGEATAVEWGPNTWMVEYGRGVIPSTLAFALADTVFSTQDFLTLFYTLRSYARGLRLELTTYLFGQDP
T2 sequence (P23975 whole entry): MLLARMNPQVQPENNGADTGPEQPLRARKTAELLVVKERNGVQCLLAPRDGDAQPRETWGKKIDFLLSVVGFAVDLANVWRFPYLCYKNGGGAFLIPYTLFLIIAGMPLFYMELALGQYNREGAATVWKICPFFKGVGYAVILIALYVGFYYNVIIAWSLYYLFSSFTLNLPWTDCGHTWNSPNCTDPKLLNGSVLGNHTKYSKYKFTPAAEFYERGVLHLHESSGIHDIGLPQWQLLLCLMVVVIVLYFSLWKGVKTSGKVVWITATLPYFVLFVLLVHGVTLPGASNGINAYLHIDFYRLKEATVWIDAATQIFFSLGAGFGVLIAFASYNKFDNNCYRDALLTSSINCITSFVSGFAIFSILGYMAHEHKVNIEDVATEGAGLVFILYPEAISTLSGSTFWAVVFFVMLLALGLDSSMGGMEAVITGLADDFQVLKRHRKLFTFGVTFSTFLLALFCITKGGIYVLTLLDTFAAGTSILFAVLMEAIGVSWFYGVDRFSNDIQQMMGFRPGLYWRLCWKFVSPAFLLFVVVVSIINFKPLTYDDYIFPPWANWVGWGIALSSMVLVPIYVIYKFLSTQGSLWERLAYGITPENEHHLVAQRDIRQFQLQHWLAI
Sequence of NET (norepinephrine transporter or SLC6A2) (P23975 whole entry): as above
Sequence of β1-adrenergic receptor (P08588 whole entry): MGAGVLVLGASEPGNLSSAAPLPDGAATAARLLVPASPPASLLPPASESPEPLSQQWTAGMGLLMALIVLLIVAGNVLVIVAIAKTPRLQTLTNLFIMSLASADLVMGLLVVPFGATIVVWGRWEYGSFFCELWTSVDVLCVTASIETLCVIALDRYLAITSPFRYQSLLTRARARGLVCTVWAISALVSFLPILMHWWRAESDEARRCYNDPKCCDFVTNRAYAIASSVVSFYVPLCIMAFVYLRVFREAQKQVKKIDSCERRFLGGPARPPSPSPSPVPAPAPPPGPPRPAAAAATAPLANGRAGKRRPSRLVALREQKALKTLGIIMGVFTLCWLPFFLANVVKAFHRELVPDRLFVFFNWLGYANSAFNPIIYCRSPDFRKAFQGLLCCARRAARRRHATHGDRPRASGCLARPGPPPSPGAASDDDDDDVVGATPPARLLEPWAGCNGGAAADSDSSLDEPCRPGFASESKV
Sequence of 5-HT (P31645 whole entry): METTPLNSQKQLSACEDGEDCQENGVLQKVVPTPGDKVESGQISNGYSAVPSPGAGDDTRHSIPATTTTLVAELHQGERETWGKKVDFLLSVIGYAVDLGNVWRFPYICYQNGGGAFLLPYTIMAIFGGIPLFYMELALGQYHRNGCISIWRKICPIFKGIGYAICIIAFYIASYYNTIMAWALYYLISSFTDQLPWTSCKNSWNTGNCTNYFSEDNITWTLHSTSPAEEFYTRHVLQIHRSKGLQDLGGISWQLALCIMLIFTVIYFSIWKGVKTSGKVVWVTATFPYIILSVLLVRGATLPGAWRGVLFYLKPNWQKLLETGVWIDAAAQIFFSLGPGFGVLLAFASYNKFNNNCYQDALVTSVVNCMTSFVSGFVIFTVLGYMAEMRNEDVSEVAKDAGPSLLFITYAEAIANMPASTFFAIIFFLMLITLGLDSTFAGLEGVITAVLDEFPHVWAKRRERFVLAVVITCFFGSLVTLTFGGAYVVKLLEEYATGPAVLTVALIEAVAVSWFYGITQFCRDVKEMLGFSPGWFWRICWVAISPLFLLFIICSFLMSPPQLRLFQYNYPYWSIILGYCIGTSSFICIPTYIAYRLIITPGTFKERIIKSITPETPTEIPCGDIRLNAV

As a reminder, the IC50 is the midpoint of a concentration-inhibition curve. Broadly, the Vd is a proportionality between amount in the body and measured concentration, not a real space. Higher therefore signals wide distribution into tissue. What is called half-life is the time needed for the level to fall by half in the phase considered. Low readings indicate rapid decline, high ones slow decline. Broadly, the bioavailability is dose-corrected exposure relative to a reference, in per cent. Read a low bioavailability as poor availability. In the case of `CC1CCN(CC2(c3ccc(Cl)cc3)CCC2)CC1COc1ccc(C(F)(F)F)cc1` (stereo not shown) [(1)], the EC50 at DAT (h) turned out to be 1 nM; on NET (h), 1000 nM; at DAT (r), 80 nM. Also, the IC50 against DAT (SLC6A3) stood at 1 nM; in [1], 175 nM; at 5-HT it was 1200 nM. Besides, the “M1 (nM)h” value at M1 receptor is 5000 nM. Moreover, at Histamine H1 receptor, the “Histamine H1 (nM)h” value stood at 5000 nM. For the same compound, the “Sigma σ1 (nM)h” value on sigma-1 (σ1) receptor was 5000 nM. In addition, the “β1-adrenergic (nM)h” value on β1-adrenergic receptor is reported as 5000 nM. Moreover, the “D2 (nM)h” value on dopamine D2 receptor was found to be 1000 nM. The compound also displayed a Vd in “in vivo” of 6 L/kg. In addition, in the data set “in vivo” (iv), the half-life worked out at 3.33 h. In addition, the bioavailability in the data set “in vivo” (po) came to 40%. For the same compound, the “acute single dose toxicology, observed symptoms” value with rat (rat (n = 5), 200 mg/kg, i.v., observed 72 hours) is “decreased grip strength, and slight depression”; with rat (rat, doses below 120 mg/kg) it was “no significant observed symptoms”.
